In the supplement of paper PMC10307832:

Assays:
Experiment in all cases: relative viability (nuclei count vs DMSO), 5 days (fraction); higher = more cells survive
[1] = compound: C/C(=N\NC(=S)N1CCC1)/C2=CC=CC=N2 + CC1(C)CCC(c2ccc(Cl)cc2)=C(CN2CCN(c3ccc(C(=O)NS(=O)(=O)c4ccc(N[C@H](CCN5CCOCC5)CSc5ccccc5)c(S(=O)(=O)C(F)(F)F)c4)cc3)CC2)C1 [Navitoclax] (partner 0.5 µM)
Outline: (§1)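 Nuclei were stained with Hoechst during a one-step fixation (final 0.05% Triton X-100, 1% formaldehyde, 1 ug/ml Hoechst) carried out 5 days after dosing, then counted on 4× images. The cells, lung cancer lines in 1536-well plates, had been dosed by pin tool the day after seeding with one drug alone or a fixed anchor-drug dose plus five library-drug doses (not always all listed) in √10 steps. Relative viability is the nuclei count in treated wells divided by that in vehicle wells, and each value is the median of duplicate plates.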

[2] = compound: C/C(=N\NC(=S)N1CCC1)/C2=CC=CC=N2 + O=C(CCCCCCC(=O)Nc1ccccc1)NO [Vorinostat] (partner 1 µM)
Outline: as §1

[3] = compound: C/C(=N\NC(=S)N1CCC1)/C2=CC=CC=N2 + Nc1nc2[nH]cc(CCc3ccc(C(=O)N[C@@H](CCC(=O)O)C(=O)O)cc3)c2c(=O)[nH]1 [Pemetrexed] (partner 0.2 µM)
Outline: as §1

[4] = compound: C/C(=N\NC(=S)N1CCC1)/C2=CC=CC=N2 + C[C@]1(O)C[C@@H](c2nc(-c3ccc4ccc(-c5ccccc5)nc4c3)c3c(N)nccn32)C1 [Linsitinib] (partner 1 µM)
Outline: as §1

Row | Cell Line | relative viability ([1]; first compound 0.05 µM) | relative viability ([1]; first compound 0.1581 µM) | relative viability ([1]; first compound 0.5 µM) | relative viability ([1]; first compound 1.581 µM) | relative viability ([1]; first compound 5 µM) | relative viability ([2]; first compound 0.05 µM) | relative viability ([2]; first compound 0.1581 µM) | relative viability ([2]; first compound 0.5 µM) | relative viability ([2]; first compound 1.581 µM) | relative viability ([2]; first compound 5 µM) | relative viability ([3]; first compound 0.05 µM) | relative viability ([3]; first compound 0.1581 µM) | relative viability ([3]; first compound 0.5 µM) | relative viability ([3]; first compound 1.581 µM) | relative viability ([3]; first compound 5 µM) | relative viability ([4]; first compound 0.05 µM) | relative viability ([4]; first compound 0.1581 µM) | relative viability ([4]; first compound 0.5 µM) | relative viability ([4]; first compound 1.581 µM) | relative viability ([4]; first compound 5 µM)
1 | NCI-H647 | 0.133 | 0.129 | 0.117 | 0.123 | 0.116 | 0.115 | 0.0948 | 0.106 | 0.0935 | 0.102 | 0.136 | 0.111 | 0.114 | 0.0953 | 0.0773 | 0.148 | 0.103 | 0.159 | 0.0971 | 0.0901
2 | NCI-H838 | 0.259 | 0.258 | 0.229 | 0.192 | 0.225 | 0.286 | 0.266 | 0.249 | 0.17 | 0.178 | 0.223 | 0.186 | 0.185 | 0.19 | 0.186 | 0.241 | 0.224 | 0.198 | 0.183 | 0.143
3 | NCI-H1355 | 0.181 | 0.718 | 0.129 | 0.143 | 0.165 | 0.165 | 0.174 | 0.148 | 0.171 | 0.144 | 0.195 | 0.18 | 0.177 | 0.189 | 0.152 | 0.259 | 0.632 | 0.193 | 0.182 | 0.181
4 | NCI-H1395 | 0.4 | 0.346 | 0.365 | 0.338 | 0.352 | 0.302 | 0.405 | 0.31 | 0.312 | 0.339 | 0.313 | 0.402 | 0.322 | 0.32 | 0.348 | 0.374 | 0.336 | 0.307 | 0.353 | 0.36
5 | NCI-H1437 | 0.166 | 0.142 | 0.152 | 0.109 | 0.0981 | 0.32 | 0.334 | 0.251 | 0.218 | 0.188 | 0.174 | 0.169 | 0.193 | 0.171 | 0.126 | 0.114 | 0.122 | 0.103 | 0.0866 | 0.0787
6 | NCI-H1651 | 0.0866 | 0.0844 | 0.0783 | 0.0702 | 0.081 | 0.116 | 0.116 | 0.109 | 0.0595 | 0.0665 | 0.137 | 0.111 | 0.0991 | 0.0716 | 0.0806 | 0.131 | 0.126 | 0.122 | 0.0894 | 0.0655
7 | NCI-H1666 | 0.185 | 0.248 | 0.208 | 0.248 | 0.262 | 0.575 | 0.579 | 0.538 | 0.501 | 0.494 | 0.532 | 0.638 | 0.54 | 0.442 | 0.473 | 0.213 | 0.244 | 0.231 | 0.22 | 0.231
8 | NCI-H1734 | 0.0989 | 0.104 | 0.0882 | 0.0843 | 0.0776 | 0.169 | 0.174 | 0.145 | 0.12 | 0.124 | 0.17 | 0.166 | 0.188 | 0.152 | 0.135 | 0.141 | 0.183 | 0.16 | 0.142 | 0.131
